Read-outs that look alike come from different tables or passages of the source.

The source of these data is patent US11963972B2, “Antiviral agents and nucleoside analogs for treatment of Zika virus” (priority 2016, dated 2024).

Series [1] in a line: Cytotoxicity MTT assay in CEM cells. Type of series: cell-based. The note with it: human. The text has this:
(§1) The toxicity of the compounds can be assessed in Vero, human PBM, CEM (human lymphoblastoid), and can be assessed in MT-2, and HepG2 cells, as described previously (see Schinazi R. F., Sommadossi J.-P., Saalmann V., Cannon D. L., Xie M.-Y., Hart G. C., Smith G. A. & Hahn E. F. Antimicrob. Agents Chemother. 1990, 34, 1061-67). Cycloheximide can be included as positive cytotoxic control, and untreated cells exposed to solvent can be included as negative controls. The cytotoxicity (IC50) can be obtained from the concentration-response curve using the median effective method described previously (see Chou T.-C. & Talalay P. Adv. Enzyme Regul. 1984, 22, 27-55; Belen'kii M. S. & Schinazi R. F. Antiviral Res. 1994, 25, 1-11).

A short description of series [2]: Cytotoxicity MTT assay in Vero cells. Format: cell-based. The note with it: African green monkey.
Source text: as §1
For orientation: Tetrazolium assays rely on reduction of a dye to a coloured formazan, in cell work by metabolically active cells.

Series [3] in a line: Cytotoxicity MTT assay in PBM cells. Type of series: cell-based. As to conditions: human. The protocol:
v) Cellular Toxicity Assays: Nucleoside and nucleoside monophosphate prodrugs can be evaluated for their potential toxic effects on P4/R5 cells, MT-2 cells and uninfected PHA-stimulated human PBM cell. Log-phase P4/R5, MT-2, and PHA-stimulated human PBM cells can be seeded at 5×10^3 to 5×10^4 cells/well in 96-well cell culture plates containing 10-fold serial dilutions of the test drug. The cultures can be incubated for 2-4 days, after which 3-(4,5-dimethylthiazol-2-yl)-2,5-diphenyltetrazolium bromide (MTT) dye solution (Promega, Madison, WI) can be added to each well and incubated overnight. The reaction can be stopped with stop solubilization solution (Promega, Madison, WI) and plates can be read at a wavelength of 570 nm. The median 50% cytotoxic concentration (CC50) can be determined from the concentration-response curve using the median effect method.
as §1

The nature of series [4]: Cytotoxicity MTT assay in HepG2 cells. Format: cell-based. The note with it: human.
Source text: as §1

Series [5] concerns ZIKV Puerto Rico strain (PRVABC59). Nature of the series: ZIKV CPE MTS assay in Vero cells. Format: cell-based, Zika virus. As to conditions: for IC50: 96 h, read-out: ZIKV CPE MTS Assay IC50 (μM) Vero. The protocol:
(§2) […] Cell cytopathic effect (CPE) MTS assay (CellTiter 96@k) AQueous One Solution Cell Proliferation Promega kit, Promega) was measured four (Vero) or five (U251 or Huh7) days after compound addition to determine the levels of replication inhibition.

Series [6] is described as follows: Cytotoxicity MTT assay in Huh7 cells. Format: cell-based. The note with it: human.
For series [7], the system named is ZIKV Puerto Rico strain (PRVABC59). The series is described as follows: ZIKV CPE MTS assay in Huh7 cells. Format: cell-based, Zika virus. The note with it: for IC50: Huh-7, 120 h, read-out: ZIKV CPE MTS Assay IC50 (μM) Huh7. As for the experimental part:
as §2

Series [8] shares this test system. The series is described as follows: ZIKV CPE MTS assay in human neuroblastoma (U251) cells. Format: cell-based, Zika virus. As to conditions: for IC50: U-251, 120 h, read-out: ZIKV CPE MTS Assay IC50 (μM) H251; for EC50: U251 cells. The protocol: as §2
Series [9] concerns DENV-2. Nature of the series: DENV-2 Huh-7 infectious assay. Format: cell-based. As to conditions: Dengue virus, DENV2, Huh-7.
Series [10] relates to DENV-2. Nature of the series: DENV-2 VERO infectious assay. Type of series: cell-based, Dengue virus. As to conditions: for EC50: Dengue virus, DENV2, Vero.
A further series relates to ZIKV PRVABC59. Nature of the series: Combination of SSZ with control 1, ZIKV CPE assay in Vero cells. As to conditions: Vero cells pretreated 18-20 h, MOI 0.01 PRVABC59, read-out: EC50, drug alone, ZIKV CPE assay. Type of series: cell-based, Zika virus. As for the experimental part:
Vero cells were pretreated for 18-20 h with SSZ (fixed concentrations of 300, 200 or 100 μM) plus control 1 (10, 5, 2.5 and 0.25 μM) prior to infection with MOI 0.01 PRVABC59 (drugs were replenished right after infection).
Drug-drug interactions were analyzed by using CalcuSyn (Biosoft, Ferguson, MO) computer software: 300, 200, and 100 μM SSZ in the presence of 10, 5, 2.5, and 0.25 μM of control 1 was evaluated versus each drug alone for each drug concentration. The interpretation of Combination Index (CI) values are as follows: Antagonism: CI value>1.0, Additive effect: CI value=1.0; Synergism: CI value=<1.0.

The next series relates to WNV replicon. The series is described as follows: WNV replicon model. The note with it: West Nile virus. Type of series: cell-based. For orientation: In antiviral work, replicon cells carry a viral genome segment that copies itself.
Series [11] deals with baby hamster kidney (BHK) cells.
For the next series, the system named is Norovirus. The series is described as follows: Norovirus activity test. Format: cell-based.
For series [12] the following is noted: human, in vivo; cited from earlier work.
The next series has as its system HCV. Nature of the series: HCV activity test. Format: cell-based.
Another series concerns DENV-2 replicon. The series is described as follows: DENV-2 replicon model. Type of series: cell-based. As to conditions: Dengue virus, DENV2.
[13] abbreviates: Zika virus, Vero cells, MOI=0.01, four days.

The term IC50 denotes the midpoint of a concentration-inhibition curve. Regarding `CC1(F)C(O)[C@@H](CO)O[C@H]1n1ccc(N)nc1=O` (some centres unmarked), the IC50 in series [1] (CEM lymphoblastoid cells) was > 100 µM; in [2], > 100 µM; in series [3] (PHA-stimulated human PBM cells) it was > 100 µM; in series [4], > 100 µM; in series [5] (setting [13]), ≤ 10 µM. In [5] (Zika virus, Vero cells, at 10 μM, read-out: ZIKV CPE MTS Assay percentage of inhibition at the concentration, Vero), the inhibition at 10 µM was found to be 65%.

On to `CC1(O)C(O)[C@@H](CO)O[C@H]1n1ccc(N)nc1=O` (some centres unmarked), for which the IC50 is > 100 µM in series [6]; 84.3 µM in [1] (CEM lymphoblastoid cells); 9.3 µM in series [7] (Zika virus, Huh7 cells, MOI=0.5, five days); > 100 µM in series [2]; 16.3 µM in series [8] (Zika virus, H251 cells, MOI=0.5, five days); 65.4 µM in series [3] (PHA-stimulated human PBM cells). For the same compound, the IC50 stood at 59.1 µM in [4] and 9.2 µM in series [5] (setting [13]).

Consider `CCOC(=O)[C@H](C)NP(=O)(OC[C@H]1O[C@@H](n2cnc3c(N)nc(N=[N+]=[N-])nc32)C(C)(O)C1O)Oc1ccccc1` (some centres unmarked), for which the IC50 in series [6] is > 100 µM; in series [1], > 100 µM; in [7] (Zika virus) it was < 20 µM; in series [2] it was > 100 µM; in series [8] (Zika virus), > 20 µM; in [3] (PBM cells) it was > 100 µM. Also, the IC50 in series [4] is > 100 µM; in series [5] (Zika virus, Vero) it was > 20 µM. The inhibition at 20 µM in series [7] (Zika virus, Huh-7, read-out: ZIKV CPE MTS Assay percentage of inhibition at the concentration, Huh7) was 88%; in series [8] (Zika virus, U-251, read-out: ZIKV CPE MTS Assay percentage of inhibition at the concentration, H251), 34%; in series [5] (Zika virus, Vero, read-out: ZIKV CPE MTS Assay percentage of inhibition at the concentration, Vero), 3%.

A word on the EC50: it is the midpoint of the concentration-response curve. For the compound `CC1(O)C(O)[C@@H](CO)O[C@H]1n1cc(F)c2c(N)ncnc21` (some centres unmarked) [drawing 83], the EC50 with DENV-2 [9] turned out to be 2.6 µM; in the series on DENV-2 [10], 8.6 µM.

Take `C[C@@]1(O)[C@H](O)[C@@H](CO)O[C@H]1n1cc(F)c2cnc(N)nc21` [Control 1, beta-D-2′-C—Me-2-amino-7-fluoro-7-deazapurine ribose, reference compound]: the EC50 with ZIKV PRVABC59 amounted to 5.4 µM; in series [7] (Huh7 cells, no pretreat, read-out: ZIKV-CPE MTS Assay EC50, μM, Huh7, No pretreat) it was 0.4 µM; in series [7] (Huh7 cells, pretreated 18-20 h before infection, read-out: ZIKV-CPE MTS Assay EC50, μM, Huh7, Pretreat), 0.5 µM; in [8] (no pretreat, read-out: ZIKV-CPE MTS Assay EC50, μM, U251, No pretreat) it was 3.5 µM; in series [8] (pretreated 18-20 h before infection, read-out: ZIKV-CPE MTS Assay EC50, μM, U251, Pretreat), 4 µM; in [5] (Vero cells, no pretreat, read-out: ZIKV-CPE MTS Assay EC50, μM, Vero, No pretreat) it was 0.8 µM. In addition, the EC50 in [5] (Vero cells, pretreated 18-20 h before infection, read-out: ZIKV-CPE MTS Assay EC50, μM, Vero, Pretreat) is 0.4 µM.

As a reminder, the EC90 is the concentration needed for an effect of 90%. Take `O=C(O)c1cc(/N=N/c2ccc(S(=O)(=O)Nc3ccccn3)cc2)ccc1O` [Sulfasalazine]: the EC50 in the series with ZIKV PRVABC59 (Zika virus) was 210 µM; in the series with WNV replicon, 9.9 µM; in [7] (Zika virus, Huh-7, Huh7 cells, no pretreat, read-out: ZIKV-CPE MTS Assay EC50, μM, Huh7, No pretreat) it was 255 µM; in [7] (Zika virus, Huh-7, Huh7 cells, pretreated 18-20 h before infection, read-out: ZIKV-CPE MTS Assay EC50, μM, Huh7, Pretreat), 341 µM; with DENV-2 replicon, 8.3 µM; in the series on DENV-2 [9], 22.2 µM. Further, the EC50 in [8] (Zika virus, U-251, no pretreat, read-out: ZIKV-CPE MTS Assay EC50, μM, U251, No pretreat) was 385 µM; in [8] (Zika virus, U-251, pretreated 18-20 h before infection, read-out: ZIKV-CPE MTS Assay EC50, μM, U251, Pretreat) it was 318 µM; in series [5] (Zika virus, Vero cells, no pretreat, read-out: ZIKV-CPE MTS Assay EC50, μM, Vero, No pretreat), 181 µM; in [5] (Zika virus, Vero cells, pretreated 18-20 h before infection, read-out: ZIKV-CPE MTS Assay EC50, μM, Vero, Pretreat) it was 273 µM; in the series with DENV-2 [10], > 100 µM. In addition, the EC90 in the series with WNV replicon was determined as 78.3 µM; in the series with DENV-2 [9] it was 61.9 µM. Moreover, the inhibition at 30 µM in the series on WNV replicon (at 30 μM) is 78.5%; in the series with DENV-2 replicon (at 30 μM) it was 77.4%. Further, in series [11], the “Toxicity in baby hamster kidney (BHK) cells” value is > 100 µM. The “toxicity in culture (no toxicity up to)” value in series [11] is > 100 µM. Moreover, the “effect on Norovirus (no effect observed up to)” value with Norovirus is > 100 µM. Moreover, the “doses taken without side effects” value in [12] was “up to 4 g/day”. Besides, the safety in pregnancy result in series [12] is listed as “safe for a person to take while pregnant”. In the series on HCV, the “effect on HCV (no effect observed up to)” value is > 100 µM. Moreover, the “% inhibition, DENV-2 in Vero cells” value in the series on DENV-2 [10] (Vero, concentration not given) is reported as < 1%.
